Test results reported in ChEMBL document CHEMBL1201862, “PubChem BioAssay data set” (2004).
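Interpolation was linear, between the two tested concentrations surrounding the appropriate level; five concentrations were tested over 48 hours in 96-well plates. The concentration for 50% growth inhibition is given as GI50.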 Calls of active or inactive are those of the source. No stated cut-off is given here; in the data, active = GI50 up to about 1.1 µM and inactive = higher.

Assays:
Assay in all cases: inhibition of tumour cell growth, NCI panel, 48 h
[1] = test system: OVCAR-5
[2] = test system: LOX IMVI
[3] = test system: HCC 2998
[4] = test system: SF-268
[5] = test system: A498
[6] = test system: RXF 393
[7] = test system: OVCAR-8
[8] = test system: SN12C
[9] = test system: CCRF-CEM
[10] = test system: SNB-19
[11] = test system: SR
[12] = test system: MDA-MB-435
[13] = test system: UO-31
[14] = test system: MOLT-4
[15] = test system: SW-620
[16] = test system: NCI-H522
[17] = test system: NCI-H23
[18] = test system: A549
[19] = test system: CAKI-1
[20] = test system: EKVX

Measured: GI50

COc1cccc2c(Nc3ccc(S(=O)(=O)NC(C)=O)cc3)c3ccc([N+](=O)[O-])cc3nc12
inactive: [1] > 66.5 µM | [2] 37.2 µM | [3] 44.9 µM | [4] 25.1 µM | [5] 56.8 µM | [6] 97.9 µM | [7] 27.7 µM | [8] 57.1 µM | [9] 55.5 µM | [10] > 45 µM | [11] 4.15 µM | [12] 31.6 µM | [13] 12.4 µM | [14] 17.2 µM | [15] 45.7 µM | [16] 17.5 µM | [17] 35.2 µM | [18] 39.4 µM | [19] 65.6 µM | [20] 40.6 µM

O=C(N/N=C\c1ccc(Cl)cc1)Nc1ccc2ccccc2c1
inactive: [1] 71.6 µM | [2] > 100 µM | [3] 67.5 µM | [4] 26.9 µM | [5] 30.9 µM | [6] 27.6 µM | [7] 27.4 µM | [8] 40.6 µM | [9] > 100 µM | [10] 30.4 µM | [11] 36.2 µM | [12] 49.7 µM | [13] 53.7 µM | [14] > 100 µM | [15] 46.2 µM | [16] 38.9 µM | [17] 76.4 µM | [18] 52 µM | [19] 41.7 µM | [20] 64.9 µM

CC(C)(C)OC(=O)NCCCCCCC(=O)Cc1ccccc1
inactive: [1] > 100 µM | [2] > 100 µM | [3] > 100 µM | [4] > 100 µM | [5] > 100 µM | [6] > 100 µM | [7] > 100 µM | [8] > 100 µM | [9] > 100 µM | [10] > 100 µM | [11] > 100 µM | [12] > 100 µM | [13] > 100 µM | [14] 59 µM | [15] > 100 µM | [16] > 100 µM | [17] > 100 µM | [18] > 100 µM | [19] > 100 µM | [20] > 100 µM

CC(=O)/C(C)=N/NC(=O)c1ccccc1O
inactive: [1] > 10 µM | [2] > 10 µM | [3] > 10 µM | [4] > 10 µM | [5] 47.9 µM | [6] > 10 µM | [7] > 10 µM | [8] > 10 µM | [9] 23 µM | [10] > 10 µM | [11] 41.6 µM | [12] > 100 µM | [13] > 10 µM | [14] 31.7 µM | [15] > 10 µM | [16] > 100 µM | [17] > 10 µM | [18] > 10 µM | [19] > 10 µM | [20] > 10 µM
